In ChEMBL document CHEMBL3865807, “Syntheses and photodynamic activity of some glucose-conjugated BODIPY dyes” (Eur J Med Chem, 2016) one finds Flu intensity and Activity data, which are given here for one compound.

The nature of data set [1]: Drug uptake in human A549 cells assessed as mean fluorescence intensity at 2.5 uM after 8 hrs by flow cytometry (reference value: 5.4 +/- 1.5). The note with it: a549, 8 h. The class given is ADME, cell-based. (A flow cytometer gives signals particle by particle.)
A short description of data set [2]: Toxicity in human A549 cells assessed as alteration in cell morphology at 100 nM measured up to 4 hrs in dark by confocal microscopy. It is filed as cell-based. To be noted: a549, 4 h, 0.1 µM.
Data set [3] is described as follows: Drug uptake in human L-132 cells assessed as mean fluorescence intensity at 2.5 uM after 16 hrs by flow cytometry (reference value: 4.6 +/- 1.2). To be noted: l132, 16 h. The class given is ADME, cell-based.

In the case of `CCC1=C(C)C2=C(C)c3c(C)c(CC)c(C)n3[B-](F)(F)[N+]2=C1/C=C/c1ccc(O[C@H]2O[C@H](CO)[C@@H](O)[C@H](O)[C@H]2O)cc1`, the Flu intensity in data set [1] is 49.4 to 58.4; in data set [3], 41.5. The Activity entry in data set [2] is on record as “Non-Toxic”.
